Values of other authors, collected in US7834015B2, “Pyrrolo[1,2-a] pyrazin-1(2H)-one and pyrrolo[1,2-d][1,2,4]triazin-1(2H)-one derivatives as inhibitors of poly(ADP-ribose)polymerase (PARP)” (Instituto di Ricerche Di Biologia Molecolare P. Angeletti …, priority 2006, dated 2010).

System: ischemia and reperfusion of the heart or skeletal muscle
Details: rabbits

**Q.** Which “reductions in infarct size in the heart” value (single injection 10 mg/kg, one minute before occlusion or one minute before reperfusion) does the source give for `NC(=O)c1cccc(N)c1` [3-amino-benzamide] here?
**A.** The value was 32-42%.

**Q.** Which reduced infarct size (single injection 1 mg/kg) does the source give for `Oc1cccc2c(O)nccc12` [1,5-dihydroxyisoquinoline] here?
**A.** Its reduced infarct size is 38-48%.
